{
  "source": "patent US20040019092A1",
  "about": "“Non-peptide somatostatin receptor ligands” (priority 2001, published 2004)",
  "key": {"[1]": {"assay": "Urinary excretion and metabolite patterns in blood and urine", "type": "in vivo, rat", "details": "for Urinary excretion of parent drug: underestimates (urine lost)", "procedure": "Metabolite patters were determined in blood extracts and in urine. Blood was pooled from the 3 intravenously dosed rats of the pharmacokinetic study and from 3 additional rats treated in the same way. Urine was obtained from the animals of the pharmacokinetic study.\nBetween 0.3 and 0.6 mL of pooled diluted blood were spiked with 10-20 μg unlabeled compound 42-ch, extracted with 10 mL of methanol (HPLC grade, Rathburn) by sonication and centrifuged. The pellet was extracted once more in the same way. The two supernatants were combined and evaporated under reduced pressure at 35° C. on a rotary evaporator. The residue was transferred into a smaller vial by means of methanol and water, evaporated under a stream of nitrogen and taken up in 80 μl methanol and 320 μl water or in 120 μl methanol and 280 μl water by sonication. The suspension was centrifuged and a 300 μl aliquot of the supernatant was injected onto the HPLC column. The extraction yield of radioactivity was only 45±12% (mean ISD).\nTo urine samples, acetonitrile (˜5% v/v), TFA (to obtain a pH of ˜3) and unlabeled compound 42-ch (˜4 μg per volume analyzed) were added. The mixtures were centrifuged and 1-2 mL of supernatant were injected onto the HPLC column.\nThe chromatography was performed using HP 1090 liquid chromatograph (Hewlett-Packard). The radioactivity of the column eluate was measured by liquid scintillation counting either off-line or on-line using a Berthold LB 507A radioactivity monitor. The samples were chromatographed on a reversed-phase column (Nucleosil 100, C18AB, 250×4.6 mm, 5 μm particle size, Macherey-Nagel) protected by a corresponding 8×4 mm precolumn. The column temperature was 40° C. The components were eluted with a gradient of 0.02% v/v trifluoroacetic acid (TFA, Pierce) in water (mobile phase A, pH 2.8) versus acetonitrile (HPLC grade S, Rathburn; mobile phase B). The proportion of solvent B was kept at 5% up to 5 minutes after injection and was then increased in linear segments to 40% at 110 minutes and 100% at 120 minutes where it was kept for another 10 minutes. The total flow rate was 1 mL/min. The unlabeled parent drug, added as a retention time marker, was monitored by UV detection at 216 nm."}, "[2]": {"assay": "In vitro blood distribution", "type": "in vitro ADME", "details": "rat blood, 5-5000 ng/mL", "procedure": "(§1) In vitro blood distribution and plasma protein binding. For blood distribution studies, fresh, heparinized rat blood (n=3) was spiked with [^14C]-42 to achieve the final concentrations of 5, 50, 500 and 5000 ng/mL. After a 30-minutes incubation at 4° C., 22° C. and 37° C., the samples were centrifuged (1600×g, 10 minutes, at the incubation temperature) to get plasma. The fraction free of 42 in plasma of rat and human was determined by equilibrium dialysis. Phosphate buffer was spiked with [^14C]-42 (50, 500, 5000 ng/mL) and dialyzed versus blank rat and human plasma at 37° C. for 2 hours. The radioactivity was determined in spiked blood samples, in plasma obtained after centrifugation and in both compartments after dialysis."}, "[3]": {"assay": "Unidirectional brain extraction (Brain Uptake Index), single intracarotid injection", "type": "in vivo, Wistar rats", "details": "rat, 5 s after intracarotid injection, Ringer buffer as vehicle", "procedure": "The unidirectional influx for [^14C]-42 was measured by the brain sampling single injection technique in adult male Wistar rats (˜220 g) under anesthesia (ketamine 130 mg/kg i.m., xylazine 1.3 mg/kg i.m.) (Oldendorf, W. H. “Measurement of brain uptake of radiolabeled substances using tritiated water internal standard” Brain Res., 1970, 24, 372-376). A bolus of ˜220 μL 0.001 M HEPES-buffered Ringer's solution pH 7.4, or rat plasma, was rapidly injected into the common carotid artery. The bolus contained [^14C]-42 (68 μg/mL) together with tritiated water (25 μCi/mL); the amount of ethanol in the injectate was 1% (v/v). The animals were decapitated 5 seconds after the injection. […] The percentage BUI (Brain Uptake Index) was calculated as […]\nThe brain extraction ratio E was calculated from E=BUI*0.62, where 0.62 represents the brain extraction ratio of tritiated water (Pardridge, W. M. et al. “Absence of albumin receptor on brain capillaries in vivo or in vitro” Am. J. Physiol, 1985, 249, E264-E267). In order to quantify a possible sequestration of [^14C]-42 by the brain microvasculature, the brain hemispheres of 3 rats were submitted to capillary depletion (Triguero, D, et al. “Capillary depletion method for quantifying the blood-brain barrier transcytosis of circulating peptides and plasma proteins” J. Neurochem, 1990, 54, 1882-1888). […]"}, "[4]": {"assay": "in vivo", "details": "male, Wistar, rat", "protocol": "(§2) The pharmacokinetic study was performed with 3 male Wistar rats (BRL) weighing 300-330 g with a one week interval between administration phases. The day before the first dosing, the rats underwent surgical implantation of an in-dwelling cannula; the right femoral artery was cannulated and the tube was passed subcutaneously to emerge at the back of the neck. The animals were individually housed in metabolism cages and fasted overnight before administrations.\n(§3) The dose solution was administered (5 mL/kg) by gastric incubation.\n(§4) The dose solution was administered (2 mL/kg) into the surgically exposed femoral vein.\n(§5) During the study, 18 blood samples (100-500 μL) were taken, up to 48 hours post-dose from the cannulated femoral artery representing a total volume of 5.7 mL blood. The loss of blood was compensated by infusion of 6 times 1 mL of blood from donor rats. Urine samples were collected up to 48 hours post-dose. For the analysis of the in vivo brain distribution, 3 male rats were intravenously dosed (1 mg/kg or 72 μCi/kg) as described above. At 0.5 hours after administration, the rats were sacrificed; blood and brain were collected.\n(§6) Determination of radioactivity in blood, plasma, brain homogenates and in urine, was carried out by direct liquid scintillation counting. Prior to radiometric determination, blood and tissue were solubilized in Solutron (Kontron Instruments, Zurich, Switzerland). After adding 10 mL of scintillation cocktail (Lumasafe, Lumac, Landgraaf, the Netherlands), all samples were counted in Tri-carb liquid scintillation analyzer (Canberra Packard, IL).\n(§7) The procedure involved the addition of 5 μg of non-radiolabeled 42 to each blood sample as an internal standard. After adding 1 mL of acetonitrile, the sample was mixed with a Polytron mixer and centrifuged (234000×g, 30 minutes) in a Beckman centrifuge (Model TL100). The supernatant was evaporated in a vacuum centrifuge (Univapo 150H, Zivy). The residue was reconstituted in 250 μL of mobile phase-water (3:1 v/v) and centrifuged (3000×g, 60 s). The supernatant (200 μL) was injected onto HPLC. […] Compound 42 was separated from potential metabolites and endogenous compounds on a RP18 endcapped Superspher column, 125 mm×4 mm (Merck) at 45° C. The mobile phase consisted of 0.1% tetramethylammonium hydroxide—acetonitrile (500:500 v/v). The flow rate was 1 mL/min; the effluent was monitored at 260 nm. […] The limit of quantification was 0.3 ng/mL.\n(§8) The peeling method was applied to describe the data by a compartment model approach, characterized by the following equation: C═C1*e^λ1−t+C2*e^λ2−t. The initial estimates of C1, λ1, C2, λ2 were taken to generate the best fit using the computer software ELSFIT. The estimates for half-lives were calculated as T1/2λi=ln2/λi."}, "[5]": {"details": "male, Wistar, rat, in vivo, iv", "protocol": "as §2, §3, §4, §5, §6, §7, §8"}, "[6]": {"assay": "Brain penetration in rat after 48-hour intravenous infusion", "type": "in vivo", "details": "rats; for concentration at 48 h / Kp at 48 h: male, rat, iv, 100 μg/h; for Kp at 48 h: brain/whole blood", "procedure": "The in vivo brain penetration of compound 42 after a 48-hour intravenous infusion was assessed. [^14C]-42-ch was intravenously administered to 5 male rats at a loading dose of 0.3 mg(-b)/rat and then infused at a constant rate of 100 μg(-b)/h for 48 hours using a syringe pump connected to the femoral vein. Immediately after stopping the infusion, the rats were sacrificed. Blood and brain were collected and analyzed for total radioactivity and unchanged compound 42."}, "[7]": {"assay": "Plasma protein binding, equilibrium dialysis, human plasma", "type": "in vitro ADME", "details": "50-5000 ng/mL, 37° C.", "procedure": "as §1"}, "[8]": {"details": "48 hours i.v. infusion 100 μg/h"}},
  "note": "Where “and” joins values, the source holds several entries; their conditions need not be identical. Equal entries are not always repeated. Where two headings read alike, the source gives them in different places.",
  "data": [
    {"smiles": "N#Cc1cc(S(=O)(=O)N2C(=O)N(CCCCCN)C(=O)C2Cc2c[nH]c3ccccc23)ccc1Oc1ccc(N)cc1", "note": "(centres unmarked) [Compound 42]", "values": [
      {"measurement": "Urinary excretion of parent drug", "setting": "[1]; 0-48 hours after single intravenous 1 mg/kg [^14C]-42, individual animals, 1 mg/kg", "value": "0.96 % of dose and 1.98 % of dose and 1.97 % of dose"},
      {"measurement": "Urinary excretion of parent drug", "setting": "[1]; 0-48 hours after single intravenous 1 mg/kg [^14C]-42, mean of 3 animals", "value": "1.64 % of dose"},
      {"measurement": "Urinary excretion of parent drug", "setting": "[1]; 0-48 hours after single oral 10 mg/kg [^14C]-42, individual animals, 10 mg/kg", "value": "0.001 % of dose and 0.053 % of dose and 0.114 % of dose"},
      {"measurement": "Urinary excretion of parent drug", "setting": "[1]; 0-48 hours after single oral 10 mg/kg [^14C]-42, mean of 3 animals", "value": "0.056 % of dose"},
      {"measurement": "drug-related material in blood", "setting": "[1]; rat blood extracts after intravenous dosing", "value": "mainly of unchanged drug"},
      {"measurement": "proportion present in plasma at 4° C.", "setting": "[2]; 4° C.", "value": "69-92%"},
      {"measurement": "proportion present in plasma at 37° C.", "setting": "[2]; 37° C.", "value": "40-60%"},
      {"measurement": "unidirectional brain extraction (BUI experiments), Ringer buffer", "setting": "[3]", "value": 41, "unit": "%"},
      {"measurement": "bioavailability", "setting": "[4]", "value": "1.3 ± 0.9", "unit": "%"},
      {"measurement": "Vd", "setting": "[4]; iv, 1 mg/kg", "value": 20, "unit": "L/kg"},
      {"measurement": "clearance", "setting": "[4]; iv, 1 mg/kg", "value": 4.5, "unit": "mL/min"},
      {"measurement": "half-life", "setting": "[4]; iv, first half-life t1/2λ1", "value": 0.45, "unit": "h"},
      {"measurement": "half-life", "setting": "[4]; iv, terminal half-life t1/2", "value": 24, "unit": "h"},
      {"measurement": "AUC ratio parent drug/radioactivity", "setting": "[5]", "value": 0.7},
      {"measurement": "f2 (fraction of dose eliminated within λ2)", "setting": "[5]", "value": 67, "unit": "%"},
      {"measurement": "concentration at 48 h", "setting": "[6]; brain, 48 hours i.v. infusion 100 μg/h, read-out: Concentration in brain, MEAN ± SD", "value": "18 ± 7", "unit": "ng/g"},
      {"measurement": "Kp at 48 h", "setting": "[6]; 48 hours i.v. infusion 100 μg/h, read-out: Brain/Blood Ratio, MEAN ± SD", "value": "0.27 ± 0.07"},
      {"measurement": "Kp at 48 h", "setting": "[6]; 48 hours i.v. infusion 100 μg/h, read-out: Brain/Blood Ratio, individual animals", "value": 0.27},
      {"measurement": "concentration at 48 h", "setting": "[6]; whole blood, 48-hours i.v. infusion of 100 μg/h, read-out: blood concentration", "value": "66 ± 14", "unit": "ng/mL"},
      {"measurement": "concentration at 48 h", "setting": "[6]; whole blood, 48 hours i.v. infusion 100 μg/h, read-out: Concentration in blood, MEAN ± SD", "value": "66 ± 14", "unit": "ng/g"},
      {"measurement": "concentration at 48 h", "setting": "[6]; whole blood, 48 hours i.v. infusion 100 μg/h, read-out: Concentration in blood, individual animals", "value": 59, "unit": "ng/g"},
      {"measurement": "Brain/Blood Ratio, MEAN ± SD", "setting": "[6]; [8]", "value": "0.27 ± 0.07"},
      {"measurement": "Brain/Blood Ratio, individual animals", "setting": "[6]; [8]", "value": "0.27 and 0.38 and 0.21 and 0.22"},
      {"measurement": "Concentration in brain, MEAN ± SD", "setting": "[6]; [8]", "value": "18 ± 7", "unit": "ng/g"},
      {"measurement": "Concentration in brain, individual animals", "setting": "[6]; [8]", "value": "16 ng/g (2×) and 21 ng/g and 29 ng/g and 10 ng/g"},
      {"measurement": "fraction free in human plasma", "setting": "[7]", "value": "15-23%"}
    ]}
  ]
}
